# Experimental data published in patent publication US10952433B2, “Solutions for enhancing the effectiveness of insecticides and fungicides on living plants and related methods” (priority 2015, dated 2021).
# Read-outs that look alike come from different tables or passages of the source.
# How the values were obtained:
# [1] = test system: lepidopteran larvae: cabbage loopers (Trichoplusia ni) and beet armyworms (Spodoptera exigua); assay type: in vivo; details: plants
# In short: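 Romaine lettuce plants 2-3 inches tall were sprayed with 10 mL of insecticide (ppm) with buffer, amine oxide or buffered amine oxide at 200:1, then infested with 15 T. ni and 15 S. exigua larvae (5th-6th instar) per container. Leaf surface damage scored visually in 5% increments after 24 h.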
# [2] = test system: lepidopteran larvae: cabbage loopers (Trichoplusia ni) and beet armyworms (Spodoptera exigua); assay type: in vivo; details: leaf discs
# In short: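 Romaine lettuce leaf discs (⅝ inch) dipped about one second in treatment solution and infested with four cabbage loopers and four beet armyworms (3rd-4th instar) per container. Held dark at 15 °C, 80% RH; percent disc-area damage scored visually in 5% increments at 24, 48 and 72 h.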
# [3] = insecticide + CO3 buffer 200:1, no amine oxide, PPM: Chlorantranilopril 60, Acephate 70, Methoxyfenozide 100, Spinosad 30, Permethrin 10, Indoxacarb 50
# [4] = insecticide + PO4 buffer 200:1, no amine oxide, PPM: Chlorantranilopril 60, Acephate 70, Methoxyfenozide 100, Spinosad 30, Permethrin 10, Indoxacarb 50
# [5] = insecticide + amine oxide 12, no buffer, 200:1, PPM: Chlorantranilopril 60, Acephate 70, Methoxyfenozide 100, Spinosad 30, Permethrin 10, Indoxacarb 50
# [6] = insecticide + amine oxide 1218, no buffer, 200:1, PPM: Chlorantranilopril 60, Acephate 70, Methoxyfenozide 100, Spinosad 30, Permethrin 10, Indoxacarb 50
# [7] = insecticide + buffered amine oxide system CO3, 12, 200:1, PPM: Chlorantranilopril 60, Acephate 70, Methoxyfenozide 100, Spinosad 30, Permethrin 10, Indoxacarb 50
# [8] = insecticide + buffered amine oxide system CO3, 1218, 200:1, PPM: Chlorantranilopril 60, Acephate 70, Methoxyfenozide 100, Spinosad 30, Permethrin 10, Indoxacarb 50
# [9] = insecticide + buffered amine oxide system PO4, 12, 200:1, PPM: Chlorantranilopril 60, Acephate 70, Methoxyfenozide 100, Spinosad 30, Permethrin 10, Indoxacarb 50
# [10] = insecticide + buffered amine oxide system PO4, 1218, 200:1, PPM: Chlorantranilopril 60, Acephate 70, Methoxyfenozide 100, Spinosad 30, Permethrin 10, Indoxacarb 50
# [11] = insecticide alone, highest, PPM: Chlorantranilopril 120, Acephate 140, Methoxyfenozide 200, Spinosad 60, Permethrin 20, Indoxacarb 100
# [12] = insecticide alone, increased, PPM: Chlorantranilopril 90, Acephate 105, Methoxyfenozide 150, Spinosad 45, Permethrin 15, Indoxacarb 75
# [13] = insecticide alone, PPM: Chlorantranilopril 60, Acephate 70, Methoxyfenozide 100, Spinosad 30, Permethrin 10, Indoxacarb 50
smiles,measurement,setting,value
COP(=O)(NC(C)=O)SC (centres unmarked) [Acephate],Percent Lepidopteran Damage to Romaine Lettuce 24 hr,[1]; [3],31.0%
same,Percent Lepidopteran Damage to Romaine Lettuce 24 hr,[1]; [4],20.0%
same,Percent Lepidopteran Damage to Romaine Lettuce 24 hr,[1]; [5],36.0%
same,Percent Lepidopteran Damage to Romaine Lettuce 24 hr,[1]; [6],28.0%
same,Percent Lepidopteran Damage to Romaine Lettuce 24 hr,[1]; [7],11.5%
same,Percent Lepidopteran Damage to Romaine Lettuce 24 hr,[1]; [8],4.5%
same,Percent Lepidopteran Damage to Romaine Lettuce 24 hr,[1]; [9],7.5%
same,Percent Lepidopteran Damage to Romaine Lettuce 24 hr,[1]; [10],1.0%
same,Percent Lepidopteran Damage to Romaine Lettuce 24 hr,[1]; [11],13.0%
same,Percent Lepidopteran Damage to Romaine Lettuce 24 hr,[1]; [12],16.5%
same,Percent Lepidopteran Damage to Romaine Lettuce 24 hr,[1]; [13],22.7%
same,Percent Lepidopteran Damage to Romaine Lettuce 24 hr,[2]; [3],50.0%
same,Percent Lepidopteran Damage to Romaine Lettuce 24 hr,[2]; [4],38.5%
same,Percent Lepidopteran Damage to Romaine Lettuce 24 hr,[2]; [5],27.0%
same,Percent Lepidopteran Damage to Romaine Lettuce 24 hr,[2]; [6],22.0%
same,Percent Lepidopteran Damage to Romaine Lettuce 24 hr,[2]; [7],34.0%
same,Percent Lepidopteran Damage to Romaine Lettuce 24 hr,[2]; [8],29.5%
same,Percent Lepidopteran Damage to Romaine Lettuce 24 hr,[2]; [9],43.5%
same,Percent Lepidopteran Damage to Romaine Lettuce 24 hr,[2]; [10],18.0%
same,Percent Lepidopteran Damage to Romaine Lettuce 24 hr,[2]; [11],29.0%
same,Percent Lepidopteran Damage to Romaine Lettuce 24 hr,[2]; [12],27.0%
same,Percent Lepidopteran Damage to Romaine Lettuce 24 hr,[2]; [13],27.5%
same,Percent Lepidopteran Damage to Romaine Lettuce 48 hr,[2]; [3],57.5%
same,Percent Lepidopteran Damage to Romaine Lettuce 48 hr,[2]; [4],53.0%
same,Percent Lepidopteran Damage to Romaine Lettuce 48 hr,[2]; [5],49.5%
same,Percent Lepidopteran Damage to Romaine Lettuce 48 hr,[2]; [6],52.5%
same,Percent Lepidopteran Damage to Romaine Lettuce 48 hr,[2]; [7],63.5%
same,Percent Lepidopteran Damage to Romaine Lettuce 48 hr,[2]; [8],50.5%
same,Percent Lepidopteran Damage to Romaine Lettuce 48 hr,[2]; [9],55.5%
same,Percent Lepidopteran Damage to Romaine Lettuce 48 hr,[2]; [10],32.5%
same,Percent Lepidopteran Damage to Romaine Lettuce 48 hr,[2]; [11],35.5%
same,Percent Lepidopteran Damage to Romaine Lettuce 48 hr,[2]; [12],44.5%
same,Percent Lepidopteran Damage to Romaine Lettuce 48 hr,[2]; [13],47.5%
same,Percent Lepidopteran Damage to Romaine Lettuce 72 hr,[2]; [3],61.0%
same,Percent Lepidopteran Damage to Romaine Lettuce 72 hr,[2]; [4],68.5%
same,Percent Lepidopteran Damage to Romaine Lettuce 72 hr,[2]; [5],59.5%
same,Percent Lepidopteran Damage to Romaine Lettuce 72 hr,[2]; [6],67.0%
same,Percent Lepidopteran Damage to Romaine Lettuce 72 hr,[2]; [7],66.0%
same,Percent Lepidopteran Damage to Romaine Lettuce 72 hr,[2]; [8],63.5%
same,Percent Lepidopteran Damage to Romaine Lettuce 72 hr,[2]; [9],72.0%
same,Percent Lepidopteran Damage to Romaine Lettuce 72 hr,[2]; [10],51.0%
same,Percent Lepidopteran Damage to Romaine Lettuce 72 hr,[2]; [11],42.0%
same,Percent Lepidopteran Damage to Romaine Lettuce 72 hr,[2]; [12],47.0%
same,Percent Lepidopteran Damage to Romaine Lettuce 72 hr,[2]; [13],79.5%
